Measurements reported in PMC8243326, “Data-Driven Ensemble Docking to Map Molecular Interactions of Steroid Analogs with Hepatic Organic Anion Transporting Polypeptides” (Journal of Chemical Information and Modeling, 2021).
Where two headings read alike, the source gives them in different places.

Assays:
OATP2B1 [1] = target: T1, OATP2B1 (Homo sapiens, UniProt O94956); assay: Pyranine uptake inhibition in A431 cells overexpressing OATP2B1; settings: for selectivity for OATP2B1 (in words): vs OATP1B1 and OATP1B3; for fold decrease in activity compared with compound 11: 3-hydroxy and 3-methoxy analogs vs 3-benzyloxy compound 11
T1 sequence (O94956 1-709): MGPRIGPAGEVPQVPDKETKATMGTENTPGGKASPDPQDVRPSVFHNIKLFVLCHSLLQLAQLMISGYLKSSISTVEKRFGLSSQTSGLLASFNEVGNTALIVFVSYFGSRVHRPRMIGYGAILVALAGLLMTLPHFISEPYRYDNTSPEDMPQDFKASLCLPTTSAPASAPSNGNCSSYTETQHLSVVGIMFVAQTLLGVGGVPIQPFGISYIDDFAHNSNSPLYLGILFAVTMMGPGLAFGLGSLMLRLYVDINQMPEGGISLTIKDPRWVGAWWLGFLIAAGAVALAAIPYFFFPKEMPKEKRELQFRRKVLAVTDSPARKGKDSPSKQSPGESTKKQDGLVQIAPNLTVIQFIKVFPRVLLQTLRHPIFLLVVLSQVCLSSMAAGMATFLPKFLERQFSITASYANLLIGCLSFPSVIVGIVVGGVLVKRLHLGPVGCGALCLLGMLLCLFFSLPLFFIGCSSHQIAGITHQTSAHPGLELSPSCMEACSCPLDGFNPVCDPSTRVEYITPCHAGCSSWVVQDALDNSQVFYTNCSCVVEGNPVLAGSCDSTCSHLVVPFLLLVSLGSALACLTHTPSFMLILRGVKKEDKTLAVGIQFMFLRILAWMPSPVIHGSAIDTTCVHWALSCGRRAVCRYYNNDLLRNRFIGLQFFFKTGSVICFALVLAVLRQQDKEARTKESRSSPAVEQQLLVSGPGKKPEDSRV
Protocol: (§1) Compounds with measured bioactivities (Km, IC50, Ki, and EC50 bioactivity end points or percentage inhibition values) on OATP1B1 (n = 440 compounds), OATP1B3 (n = 936 compounds), or OATP2B1 (n = 173 compounds) were collected from the open domain by utilizing a KNIME workflow, which collects data from five independent data sources as described in Tuerkova et al.[15] […] IC50 values were calculated based on transport inhibition measurements (see below) by Hill1 fit, using the Origin Pro8.6 software (OriginLab Corporation, Northampton, MA, US).
(§2) 20 mM stocks in DMSO were stored for further usage at −20 °C. A431 cells overexpressing OATPs, OATP1B1, OATP1B3, or OATP2B1 or mock transfected controls were generated previously.[60] A431 cells were maintained in DMEM medium (Thermo Fischer Scientific, Waltham, MA, US) supplemented with 10% fetal bovine serum, 2 mM L-glutamine, 100 units/mL penicillin, and 100 μg/mL streptomycin at 37 °C with 5% CO2. […] The uptake of pyranine was measured on microplates based on the method developed by us previously.[60],[61]
(§3) Briefly, 1 day prior to the uptake measurement cells (8 × 10^4 cells/well in 200 μL DMEM) were seeded on 96-well plates. On the following day, the medium was removed, and the cells were washed three times with 200 μL of phosphate-buffered saline (PBS, pH 7.4) and preincubated with 50 μL of uptake buffer (125 mM NaCl, 4.8 mM KCl, 1.2 mM CaCl2, 1.2 mM KH2PO4, 12 mM MgSO4, 25 mM MES (2-(N-morpholino)ethanesulfonic acid, and 5.6 mM glucose, pH 5.5) with or without increasing concentrations of the tested compounds. The reaction was started by the addition of 50 μL of uptake buffer containing pyranine in a final concentration of 10 μM (OATP1B1) or 20 μM (OATP1B3 and OATP2B1). Cells were incubated with the dye at 37 °C for 15 min (OATP1B1 and OATP2B1) or 30 min (OATP1B3), after which the supernatant was removed, and the cells were washed three times with 200 μL of ice-cold PBS. Fluorescence (in 200 μL of PBS/well) was determined in an Enspire plate reader (PerkinElmer, Waltham, MA, Ex/Em = 403/517 nm). OATP-dependent transport was calculated by extracting fluorescence measured in mock transfected cells. Transport activity was calculated based on the fluorescence signal in the absence (100%) of the tested compounds. Experiments were repeated at least three times on cells deriving from different passages.
(§4) IC50 values were calculated by Hill1 fit, using the (OriginLab Corporation, Northampton, MA, US).

OATP1B3 [2] = target: T2, OATP1B3 (Homo sapiens, UniProt Q9NPD5); assay: Pyranine uptake inhibition in A431 cells overexpressing OATP1B3
T2 sequence (Q9NPD5 1-702): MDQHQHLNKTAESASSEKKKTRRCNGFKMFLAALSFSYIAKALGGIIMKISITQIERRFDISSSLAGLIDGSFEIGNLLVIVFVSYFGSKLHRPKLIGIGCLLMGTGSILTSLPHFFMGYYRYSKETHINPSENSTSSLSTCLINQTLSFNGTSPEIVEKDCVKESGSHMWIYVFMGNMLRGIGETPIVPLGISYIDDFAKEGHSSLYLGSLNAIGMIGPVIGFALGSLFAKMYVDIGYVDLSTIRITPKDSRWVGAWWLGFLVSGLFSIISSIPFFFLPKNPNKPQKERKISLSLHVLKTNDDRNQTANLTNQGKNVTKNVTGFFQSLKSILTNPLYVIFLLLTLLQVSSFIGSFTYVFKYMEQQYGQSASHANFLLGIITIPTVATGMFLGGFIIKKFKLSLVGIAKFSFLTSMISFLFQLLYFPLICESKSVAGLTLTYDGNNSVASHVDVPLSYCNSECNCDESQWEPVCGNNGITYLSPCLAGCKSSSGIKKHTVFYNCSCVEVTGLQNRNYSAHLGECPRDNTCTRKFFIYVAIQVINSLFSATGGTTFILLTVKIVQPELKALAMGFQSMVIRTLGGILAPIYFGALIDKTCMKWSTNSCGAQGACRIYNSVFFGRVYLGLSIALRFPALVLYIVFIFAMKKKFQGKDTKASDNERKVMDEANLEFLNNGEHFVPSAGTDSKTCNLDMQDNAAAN
Protocol: as §1, §2, §3, §4

OATP1B1 [3] = target: T3, OATP1B1 (Homo sapiens, UniProt Q9Y6L6); assay: Pyranine uptake inhibition in A431 cells overexpressing OATP1B1; settings: for activity on OATP1B1 and OATP1B3 (in words): statement covers both OATP1B1 and OATP1B3
T3 sequence (Q9Y6L6 1-691): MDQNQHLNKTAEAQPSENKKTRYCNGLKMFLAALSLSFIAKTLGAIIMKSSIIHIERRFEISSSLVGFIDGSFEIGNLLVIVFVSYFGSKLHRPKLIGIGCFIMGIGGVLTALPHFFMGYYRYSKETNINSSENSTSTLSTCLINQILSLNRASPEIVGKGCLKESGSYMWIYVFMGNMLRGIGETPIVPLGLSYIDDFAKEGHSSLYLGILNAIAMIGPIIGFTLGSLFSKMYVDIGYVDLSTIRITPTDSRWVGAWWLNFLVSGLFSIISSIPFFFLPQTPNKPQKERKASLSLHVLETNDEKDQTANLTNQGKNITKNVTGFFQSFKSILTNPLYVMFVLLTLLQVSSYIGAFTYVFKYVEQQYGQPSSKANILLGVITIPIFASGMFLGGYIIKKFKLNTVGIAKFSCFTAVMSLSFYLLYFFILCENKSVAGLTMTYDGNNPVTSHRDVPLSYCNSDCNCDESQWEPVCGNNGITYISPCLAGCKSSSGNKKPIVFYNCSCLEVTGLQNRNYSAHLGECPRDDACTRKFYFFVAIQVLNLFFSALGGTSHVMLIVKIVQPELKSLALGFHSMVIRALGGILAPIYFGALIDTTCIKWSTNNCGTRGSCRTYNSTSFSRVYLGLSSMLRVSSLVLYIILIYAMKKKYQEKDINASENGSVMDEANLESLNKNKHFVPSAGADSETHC
Protocol: IC50 values were calculated based on transport inhibition measurements (see below) by Hill1 fit, using the Origin Pro8.6 software (OriginLab Corporation, Northampton, MA, US).
as §2
Briefly, 1 day prior to the uptake measurement cells (8 × 10^4 cells/well in 200 μL DMEM) were seeded on 96-well plates. […] OATP-dependent transport was calculated by extracting fluorescence measured in mock transfected cells. Transport activity was calculated based on the fluorescence signal in the absence (100%) of the tested compounds. Experiments were repeated at least three times on cells deriving from different passages.
as §4

OATP1B1 [4] = target: T3, OATP1B1; settings: cited from earlier work; for median bioactivity value: OATP1B1, public data sources
OATP2B1 [5] = target: T1, OATP2B1; parameters: method as in earlier work; settings: Figure S14; public data sources; cited from earlier work
OATP1B3 [6] = target: T2, OATP1B3; parameters: expressed in transfected cells; host or cells: A431 cells; settings: public data sources; cited from earlier work

Row | Compound | IC50 (OATP2B1 [1]) | IC50 (OATP1B3 [2]) | IC50 (OATP1B1 [3]) | activity on OATP1B1 and OATP1B3 (in words) (OATP1B1 [3]) | other results
1 | C[C@@]12CCC3c4ccc(O)cc4CCC3C1CCC2=O (stereo partly drawn) [Compound 1, 13α-estrone] | > 50 µM | > 50 µM | – | – | –
2 | COc1ccc2c(c1)CCC1C2CC[C@@]2(C)C(=O)CCC12 (stereo partly drawn) [Compound 2] | 5.41 µM | > 50 µM | > 50 µM | – | –
3 | C[C@@]12CCC3c4ccc(OCc5ccccc5)cc4CCC3C1CCC2=O (stereo partly drawn) [Compound 3] | 7.17 µM | > 50 µM | > 50 µM | – | –
4 | COc1cc2c(cc1Br)C1CC[C@@]3(C)C(=O)CCC3C1CC2 (stereo partly drawn) [Compound 4] | 8.39 µM | > 50 µM | > 50 µM | – | fold decrease in affinity compared to hydroxyl derivative (compound 5) (OATP2B1 [1]; OATP2B1): 7 fold; selectivity for OATP2B1 (in words) (OATP2B1 [1]): selective
5 | C[C@@]12CCC3c4cc(Br)c(O)cc4CCC3C1CCC2=O (stereo partly drawn) [Compound 5] | 1.19 µM | > 50 µM | > 50 µM | – | selectivity for OATP2B1 (in words) (OATP2B1 [1]): selective
6 | C[C@@]12CCC3c4ccc(O)c(Br)c4CCC3C1CCC2=O (stereo partly drawn) [Compound 6] | 2.97 µM | 9.2 µM | 4.07 µM | weak to borderline inhibitory activity | –
7 | C[C@@]12CCC3c4cc(I)c(O)cc4CCC3C1CCC2=O (stereo partly drawn) [Compound 7] | 0.6 µM | 18.2 µM | 22.5 µM | – | selectivity for OATP2B1 (in words) (OATP2B1 [1]): selective
8 | C[C@@]12CCC3c4ccc(O)c(I)c4CCC3C1CCC2=O (stereo partly drawn) [Compound 8] | 3.58 µM | 8.28 µM | 9.28 µM | weak to borderline inhibitory activity | –
9 | C[C@@]12CCC3c4cc(Cl)c(O)cc4CCC3C1CCC2=O (stereo partly drawn) [Compound 9] | 0.9 µM | > 50 µM | > 50 µM | – | selectivity for OATP2B1 (in words) (OATP2B1 [1]): selective
10 | C[C@@]12CCC3c4ccc(O)c(Cl)c4CCC3C1CCC2=O (stereo partly drawn) [Compound 10] | 10.5 µM | > 50 µM | 25 µM | – | IC50 at 15 min (OATP2B1 [1]; human, pH 5.5): 10.5 µM
11 | CCOP(=O)(OCC)c1cc2c(cc1OCc1ccccc1)CCC1C2CC[C@@]2(C)C(=O)CCC12 (stereo partly drawn) [Compound 11] | 0.18 µM | 2.18 µM | 0.76 µM | highly active | –
12 | CCOP(=O)(OCC)c1c(OCc2ccccc2)ccc2c1CCC1C2CC[C@@]2(C)C(=O)CCC12 (stereo partly drawn) [Compound 12] | 0.75 µM | 2.49 µM | 3.22 µM | highly active | –
13 | CCOP(=O)(OCC)c1cc2c(cc1O)CCC1C2CC[C@@]2(C)C(=O)CCC12 (stereo partly drawn) [Compound 13] | 3.18 µM | 5.24 µM | 3.79 µM | moderate activity | fold decrease in activity compared with compound 11 (OATP2B1 [1]; OATP2B1): approximately 17 fold
14 | CCOP(=O)(OCC)c1c(O)ccc2c1CCC1C2CC[C@@]2(C)C(=O)CCC12 (stereo partly drawn) [Compound 14] | 10.2 µM | > 50 µM | > 50 µM | – | –
15 | CCOP(=O)(OCC)c1cc2c(cc1OC)CCC1C2CC[C@@]2(C)C(=O)CCC12 (stereo partly drawn) [Compound 15] | 2.96 µM | 9.5 µM | 10.1 µM | rather inactive | fold decrease in activity compared with compound 11 (OATP2B1 [1]; OATP2B1): approximately 17 fold
16 | CCOP(=O)(OCC)c1c(OC)ccc2c1CCC1C2CC[C@@]2(C)C(=O)CCC12 (stereo partly drawn) [Compound 16] | 2.74 µM | 11.8 µM | 32.4 µM | rather inactive | –
17 | C[C@]12CC[C@@H]3c4ccc(OS(=O)(=O)O)cc4CC[C@H]3[C@@H]1CCC2=O [E-3-S, estrone-3-sulfate] | – | – | – | – | median bioactivity value (OATP1B1 [4]): 0.450 µM; transporter selectivity (in words) (OATP1B1 [4]; OATP1B1 vs OATP1B3, known from literature): OATP1B1 selective; IC50 (OATP2B1 [5]): 10 µM
18 | COC(=O)CC[C@@H](C)[C@H]1CC[C@H]2[C@@H]3[C@H](O)C[C@@H]4C[C@H](O)CC[C@]4(C)[C@H]3C[C@H](O)[C@]12C [cholic acid methyl ester] | – | – | – | – | median bioactivity value (OATP1B3 [6]): 0.13 µM; median bioactivity value (OATP1B1 [4]): 0.20 µM
19 | C[C@H](CCC(=O)O)[C@H]1CC[C@H]2[C@@H]3CC[C@@H]4C[C@H](O)CC[C@]4(C)[C@H]3CC[C@]12C [lithocholate] | – | – | – | – | median bioactivity value (OATP1B3 [6]): 6.807 µM; median bioactivity value (OATP1B1 [4]): 0.918 µM
